Assay [1] deals with MRSA-3 (clinical isolate). Briefly: MIC broth microdilution, MRSA-3. Conditions: Staphylococcus aureus, MRSA; overnight incubation, Mueller-Hinton broth; read-out: MIC MRSA-3 (clinical isolate). Type of assay: cell-based, Staphylococcus aureus. The procedure: (§1) Antibacterial activity: The compounds were tested for the minimum inhibitory concentrations (MIC), which is the lowest concentration of a chemical required to inhibit visible microbial growth following overnight incubation. MIC values were determined using broth microdilution method according to the Clinical and Laboratory Standards Institute guidelines (CLSI, 2015, M07-A10). Mueller-Hinton broth was used as a culture medium in all the experiments. Exponentially growing bacterial cells were prepared in Mueller-Hinton broth at a concentration of approximately 5×10^5 CFU/mL. Two-fold serial dilutions of the test compound (8 concentrations ranged between 100-0.78 μg/mL) were tested. […] In each experiment, solvent (DMSO) was used as a negative control, un-treated control (composing of bacteria in Mueller-Hinton broth) was used as a growth control, blank (culture media alone) was used as sterility control. The 96-well microplate with the test compounds was incubated overnight at 37° C. Turbidity in wells indicated bacterial growth.
(§2) The compounds were tested on six MDR Gram-positive bacteria including three clinical isolates of methicillin-resistant Staphylococcus aureus (MRSA-1, MRSA-2 and MRSA-3) and three reference MRSA strains (ATCC33591, ATCC33592 and ATCC700699). They were also tested on three MDR Gram-negative bacteria including New Delhi metallo-beta-lactamase (NDM-1) positive, carbapenem-resistant E. coli (ATCC BAA2469), extended-spectrum beta-lactamase (ESBL) producing, colistin-resistant E. coli (CDC-AR-0346) and carbapenem-resistant Acinetobacter baumannii (ATCC BAA1605), in addition to two non-MDR bacteria from the same species, namely E. coli (ATCC 25922) Acinetobacter baumannii (ATCC 19606).
Background: In broth dilution the organism is exposed to a series of concentrations in liquid medium.

Another assay deals with MRSA-ATCC33591. Put plainly: MIC broth microdilution, MRSA ATCC33591. The following applies: Staphylococcus aureus; overnight incubation, Mueller-Hinton broth; read-out: MIC MRSA-ATCC33591. Type of assay: cell-based, Staphylococcus aureus. The protocol: as §1, §2
In assay [2] the test system is E. coli ATCC BAA2469 (NDM-1 carbapenem-resistant). Put plainly: MIC broth microdilution, E. coli ATCC BAA2469. The following applies: Escherichia coli, ATCCBAA2469, MDR; overnight incubation. Type of assay: cell-based, Escherichia coli. The procedure: as §1, §2
The test system of assay [3] is Acinetobacter baumannii ATCC BAA1605 (carbapenem-resistant). Briefly: MIC broth microdilution, A. baumannii ATCC BAA1605. The following applies: Acinetobacter baumannii, ATCCBAA1605, MDR; overnight incubation. Type of assay: cell-based. The protocol:
as §1, §2

The next assay deals with 6 MRSA strains. Put plainly: MIC, panel of 6 MRSA strains. Conditions: Staphylococcus aureus, across the panel of tested Gram-positive strains, read-out: MIC against all the 6 MRSA strains. Type of assay: cell-based. The procedure: as §1, §2
Another assay relates to MRSA-ATCC33592. Put plainly: MIC broth microdilution, MRSA ATCC33592. Type of assay: cell-based, Staphylococcus aureus. The following applies: Staphylococcus aureus; overnight incubation, Mueller-Hinton broth; read-out: MIC MRSA-ATCC33592. The procedure: as §1, §2
Assay [4] relates to MRSA-2 (clinical isolate). Put plainly: MIC broth microdilution, MRSA-2. Type of assay: cell-based, Staphylococcus aureus. The following applies: Staphylococcus aureus, MRSA; overnight incubation, Mueller-Hinton broth; read-out: MIC MRSA-2 (clinical isolate). The protocol:
as §1, §2

For assay [5], the system named is Acinetobacter baumannii ATCC 19606. Briefly: MIC broth microdilution, A. baumannii ATCC 19606. Type of assay: cell-based. Conditions: Acinetobacter baumannii, ATCC19606; not MDR; overnight incubation. The procedure: as §1, §2
The next assay deals with MRSA-ATCC700699 (VISA). Put plainly: MIC broth microdilution, MRSA ATCC700699 (VISA). Conditions: Staphylococcus aureus; strain intermediately resistant to vancomycin; overnight incubation; read-out: MIC MRSA-ATCC700699 (VISA). Type of assay: cell-based, Staphylococcus aureus. The protocol: as §1, §2
Assay [6] has as its system MRSA-1 (clinical isolate). Briefly: MIC broth microdilution, MRSA-1. Type of assay: cell-based, Staphylococcus aureus. The following applies: Staphylococcus aureus, MRSA; overnight incubation, Mueller-Hinton broth; read-out: MIC MRSA-1 (clinical isolate). The procedure: as §1, §2
In assay [7] the test system is E. coli CDC-AR-0346 (ESBL, colistin resistant). Briefly: MIC broth microdilution, E. coli CDC-AR-0346. Type of assay: cell-based, Escherichia coli. The following applies: Escherichia coli; MDR; overnight incubation. The procedure:
as §1, §2

For a further assay, the system named is E. coli ATCC25922. Briefly: MIC broth microdilution, E. coli ATCC25922. The following applies: Escherichia coli, ATCC25922; not MDR; overnight incubation. Type of assay: cell-based, Escherichia coli. The protocol: as §1, §2
The next assay deals with MDR E. coli strains. Briefly: MIC, both MDR E. coli strains. Type of assay: cell-based. Conditions: Escherichia coli, ATCCBAA2469; across ATCC BAA2469 and CDC-AR-0346. The procedure: as §1
The compounds were tested on six MDR Gram-positive bacteria including three clinical isolates of methicillin-resistant Staphylococcus aureus (MRSA-1, MRSA-2 and MRSA-3) and three reference MRSA strains (ATCC33591, ATCC33592 and ATCC700699). […]

Results on two compounds are retold here after US11286258B2, “Nature-inspired anticancer and antibacterial motifs and pharmaceutical composition thereof” (University of Sharjah, priority 2020, dated 2022).

In brackets after ≈: the same amount, converted by molar mass. Where only a bound is given, the exact number is not on record here.

In the case of `NCC[C@H](O)C(=O)N[C@@H]1C[C@H](N)[C@@H](O[C@H]2O[C@H](CN)[C@@H](O)[C@H](O)[C@H]2O)[C@H](O)[C@H]1O[C@H]1O[C@H](CO)[C@@H](O)[C@H](N)[C@H]1O` [Amikacin, reference compound], the MIC (as a rule, the lowest concentration found to suppress growth) was 2 µg/mL (≈ 3.42 µM) in [1]; 50 µg/mL (≈ 85.4 µM) with MRSA-ATCC33591; above 1000 µg/mL in assay [2]; 1.25 µg/mL (≈ 2.13 µM) in assay [3]; 2 to 100 µg/mL (≈ 3.42 to 171 µM) in the assay with 6 MRSA strains; 50 µg/mL (≈ 85.4 µM) with MRSA-ATCC33592. The MIC is 8 µg/mL (≈ 13.7 µM) in [4]; 10 µg/mL (≈ 17.1 µM) in assay [5]; 100 µg/mL (≈ 171 µM) with MRSA-ATCC700699 (VISA); 16 µg/mL (≈ 27.3 µM) in [6]; above 1000 µg/mL in [7]; 2.5 µg/mL (≈ 4.27 µM) against E. coli ATCC25922. The MIC against MDR E. coli strains was above 1000 µg/mL.
For the compound `O=C(O)c1cn(C2CC2)c2cc(N3CCNCC3)c(F)cc2c1=O` [Ciprofloxacin, reference compound], the MIC is 0.3 µg/mL (≈ 0.905 µM) in the assay with MRSA-ATCC33591; 100 µg/mL (≈ 302 µM) in assay [2]; 50 µg/mL (≈ 151 µM) in [3]; 0.3 to 32 µg/mL (≈ 0.905 to 96.6 µM) in the assay on 6 MRSA strains; 0.3 µg/mL (≈ 0.905 µM) in the assay on MRSA-ATCC33592; 0.625 µg/mL (≈ 1.89 µM) in assay [5]. Besides, the MIC is below 0.02 µg/mL in the assay on E. coli ATCC25922 and 16 to 100 µg/mL (≈ 48.3 to 302 µM) with MDR E. coli strains.
